In US12281057B2 (VERTEX PHARMACEUTICALS INCORPORATED, priority 2017, dated 2025):

Assays:
[1] = target: T1, truncated form of human NaV 1.8 with full channel activity (Homo sapiens, UniProt Q9Y5Y9); assay: E-VIPR Assay Method B for detecting and measuring Nav inhibition (HEK cells, membrane potential FRET dyes, electrical stimulation); type: cell-based; settings: HEK cells expressing human NaV 1.8, Table 20B, read-out: Nav 1.8 MedChem Optical Assay EVIPR Assay Method B HS IC50
Description: [formula] where X is the ratio response of the test compound. […] E-VIPR Assay Method B for Detecting and Measuring Nav Inhibition Properties Sodium ion channels are voltage-dependent proteins that can be activated by inducing membrane voltage changes by applying electric fields. The electrical stimulation instrument and methods of use, referred to as E-VIPR, are described in International Publication No. WO 2002/008748 A3 and C.-J. Huang et al. Characterization of voltage-gated sodium channel blockers by electrical stimulation and fluorescence detection of membrane potential, 24 Nature Biotech. 439-46 (2006), both of which are incorporated by reference in their entirety. The instrument comprises a microtiter plate handler, an optical system for exciting the coumarin dye while simultaneously recording the coumarin and oxonol emissions, a waveform generator, a current- or voltage-controlled amplifier, and parallel electrode pairs that are inserted into assay plate wells. Under integrated computer control, this instrument passes user-programmed electrical stimulus protocols to cells within the wells of the microtiter plate. […] Sigma #F4135), 1% NEAA (Non-Essential Amino Acids, Life Tech #11140), 1% HEPES (Life Tech #15630), 1% Pen-Strep (Penicillin-Streptomycin; […] Cells were expanded in vented cap flasks, with 95% humidity and 5% CO2. Reagents and Stock Solutions: • 100 mg/mL Pluronic F-127 (Sigma #P2443), in dry DMSO • Compound Plates: […] 5% KIR 2.1 Bacmam virus (produced in-house), prepared as described in Section 3.3 of J. A. Fornwald et al., Gene Expression in Mammalian Cells Using BacMam, a Modified Baculovirus System, 1350 Methods in Molecular Biology 95-116 (2016), the entire contents of which are incorporated by reference. • 5 mM DiSBAC6(3) (a voltage sensitive oxonol acceptor) (Aurora #00-100-010) in dry DMSO • 5 mM CC2-DMPE (a membrane-bound coumarin phospholipid FRET donor) (Aurora #00-100-008) in dry DMSO • 89 mM VABSC-1 in H2O. […] The solution was made by adding 10% Pluronic F127 stock equal to combined volumes of CC2-DMPE and DiSBAC6(3). The order of preparation was first mix Pluronic and CC2-DMPE, then add DiSBAC6(3), then while vortexing add Bath1/β-Cyclodextrin. […] Assay Protocol: […] Final DMSO concentration for all wells in the assay was 0.625% (0.75% DMSO was supplemented to the Compound Loading Buffer for a final DMSO concentration of 0.625%). 2) Hexyl Dye Solution was prepared. 3) Cell plates were prepared. On the day of the assay, the media was aspirated, and the cells were washed three times with 80 μL of Bath-1 buffer, maintaining 25 μL residual volume in each well. 4) 25 μL per well of Hexyl Dye Solution was dispensed into the cell plates. The cells were incubated for 20 minutes at room temp or ambient conditions in darkness. 5) 80 μL per well of Compound Loading Buffer was dispensed into compound plates. […] The mixture was incubated for 30 minutes at room temp/ambient conditions. […] A pre-stimulus recording was performed for 0.5 seconds to obtain the un-stimulated intensities baseline. The stimulatory waveform was followed by 0.5 seconds of post-stimulation recording to examine the relaxation to the resting state. Data Analysis: Data were analyzed and reported as normalized ratios of emission intensities measured in the 460 nm and 580 nm channels. The response as a function of time was reported as the ratios obtained using the following formula: [formula] The data were further reduced by calculating the initial (Ri) and final (Rf) ratios. These were the average ratio values during part or all of the pre-stimulation period and during sample points during the stimulation period. The fluorescence ratio (Rf/Ri) was then calculated and reported as a function of time. Control responses were obtained by performing assays in the presence of the positive control, and in the absence of pharmacological agents (DMSO vehicle negative control). Responses to the negative (N) and positive (P) controls were calculated as above. […]

[2] = target: T1, truncated form of human NaV 1.8 with full channel activity; assay: E-VIPR Assay Method A for detecting and measuring Nav inhibition (HEK cells, membrane potential FRET dyes, electrical stimulation); type: cell-based; settings: HEK cells expressing human NaV 1.8, HS (human serum) in compound loading buffer, 11 point dose response, top dose 3 μM
Outline: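 Read-out: FRET membrane-potential dye ratio (460/580 nm) before and during E-VIPR field stimulation at 10 Hz for 10 s, expressed as % activity between DMSO and positive controls. Cells: HEK with truncated human NaV1.8; compound preincubated 30 min at room temp, final DMSO 0.625%.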

[3] = Table 20A, read-out: Nav 1.8 MedChem Optical Assay EVIPR Assay Method A HS IC50

T1 sequence (Q9Y5Y9 126-1722 limits assumed): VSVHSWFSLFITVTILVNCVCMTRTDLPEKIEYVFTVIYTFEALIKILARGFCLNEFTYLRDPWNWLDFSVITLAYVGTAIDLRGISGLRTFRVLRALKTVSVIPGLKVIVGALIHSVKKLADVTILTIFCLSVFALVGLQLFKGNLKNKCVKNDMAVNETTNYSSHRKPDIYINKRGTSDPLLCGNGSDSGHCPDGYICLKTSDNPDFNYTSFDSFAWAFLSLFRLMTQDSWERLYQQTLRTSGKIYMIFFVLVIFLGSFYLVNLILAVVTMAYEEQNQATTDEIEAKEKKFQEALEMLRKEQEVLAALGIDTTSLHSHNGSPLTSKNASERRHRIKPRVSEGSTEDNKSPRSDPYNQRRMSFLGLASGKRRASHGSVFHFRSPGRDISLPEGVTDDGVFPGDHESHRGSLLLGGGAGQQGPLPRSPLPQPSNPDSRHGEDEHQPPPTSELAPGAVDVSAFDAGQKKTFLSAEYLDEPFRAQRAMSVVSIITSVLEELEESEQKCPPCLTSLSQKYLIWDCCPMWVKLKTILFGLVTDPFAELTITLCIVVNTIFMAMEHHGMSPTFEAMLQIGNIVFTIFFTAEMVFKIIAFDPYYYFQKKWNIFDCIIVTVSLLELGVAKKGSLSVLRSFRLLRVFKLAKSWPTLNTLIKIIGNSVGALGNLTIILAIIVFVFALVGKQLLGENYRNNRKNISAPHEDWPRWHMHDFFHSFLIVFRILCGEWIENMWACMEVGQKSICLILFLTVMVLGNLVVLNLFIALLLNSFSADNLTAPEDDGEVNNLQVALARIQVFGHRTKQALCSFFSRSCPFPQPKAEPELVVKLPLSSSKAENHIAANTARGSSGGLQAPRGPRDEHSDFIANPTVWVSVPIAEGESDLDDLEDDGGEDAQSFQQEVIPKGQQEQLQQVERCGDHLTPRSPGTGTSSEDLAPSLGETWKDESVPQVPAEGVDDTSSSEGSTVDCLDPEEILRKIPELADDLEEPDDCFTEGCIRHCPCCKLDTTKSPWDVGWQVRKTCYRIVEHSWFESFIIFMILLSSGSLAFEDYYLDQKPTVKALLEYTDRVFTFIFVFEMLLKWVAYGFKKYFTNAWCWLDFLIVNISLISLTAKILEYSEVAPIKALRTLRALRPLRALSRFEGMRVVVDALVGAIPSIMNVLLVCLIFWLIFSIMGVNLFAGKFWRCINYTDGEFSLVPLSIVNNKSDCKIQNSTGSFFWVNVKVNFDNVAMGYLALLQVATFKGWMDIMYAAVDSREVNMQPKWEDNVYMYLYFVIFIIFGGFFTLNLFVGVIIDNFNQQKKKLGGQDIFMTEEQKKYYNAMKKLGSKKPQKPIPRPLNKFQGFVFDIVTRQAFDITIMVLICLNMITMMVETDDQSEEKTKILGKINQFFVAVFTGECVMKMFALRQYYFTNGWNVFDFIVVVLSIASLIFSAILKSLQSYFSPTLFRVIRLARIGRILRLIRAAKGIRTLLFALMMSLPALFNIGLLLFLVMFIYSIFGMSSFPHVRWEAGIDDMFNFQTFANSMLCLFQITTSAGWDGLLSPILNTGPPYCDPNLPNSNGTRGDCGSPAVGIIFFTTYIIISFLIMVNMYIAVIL

Row | Compound | IC50 [1] [nM] | IC50 [2, 3] [nM] | other results
1 | COc1cc(F)ccc1Oc1cccc(C(F)(F)F)c1C(=O)Nc1cccc(C(N)=O)c1 [Compound 259, N-(3-carbamoylphenyl)-2-(4-fluoro-2-methoxyphenoxy)-6-(trifluoromethyl)benzamide] | 65 |  | 
2 | COc1cc(F)ccc1Oc1cc(C(F)(F)C(F)(F)F)ccc1C(=O)Nc1cccc(C(N)=O)c1 [Compound 248, N-(3-carbamoylphenyl)-2-(4-fluoro-2-methoxyphenoxy)-4-(1,1,2,2,2-pentafluoroethyl)benzamide] | 11 |  | 
3 | COc1ccc(Oc2cc(C(F)(F)C(F)(F)F)ccc2C(=O)Nc2cccc(C(N)=O)c2)c(OC)c1 [Compound 252, N-(3-carbamoylphenyl)-2-(2,4-dimethoxyphenoxy)-4-(1,1,2,2,2-pentafluoroethyl)benzamide] | 36 |  | 
4 | Cc1cc(F)ccc1Oc1cccc(C(F)(F)F)c1C(=O)Nc1ccc(F)c(C(N)=O)c1 [Compound 41, N-(3-Carbamoyl-4-fluoro-phenyl)-2-(4-fluoro-2-methyl-phenoxy)-6-(trifluoromethyl)benzamide] |  | 560 | 
5 | [2H]C([2H])([2H])Oc1cc(OC(F)(F)F)ccc1Oc1ccc(C(F)(F)F)c(F)c1C(=O)Nc1ccc(C(N)=O)nc1C [Compound 188, 5-[[2-Fluoro-6-[2-(trideuteriomethoxy)-4-(trifluoromethoxy)phenoxy]-3-(trifluoromethyl)benzoyl]amino]-6-methyl-pyridine-2-carboxamide] |  | 160 | 
6 | NC(=O)c1cc(NC(=O)c2ccc(OC(F)(F)F)cc2Oc2ccc(OC(F)(F)F)cc2)ccn1 [Compound 149, 4-[[4-(Trifluoromethoxy)-2-[4-(trifluoromethoxy)phenoxy]benzoyl]amino]pyridine-2-carboxamide] |  | 1500 | 
7 | COc1cc(OC(F)(F)F)ccc1Oc1cnc(C(F)(F)F)c(F)c1C(=O)Nc1cc(C(N)=O)ncc1C [Compound 143, N-(2-Carbamoyl-5-methyl-4-pyridyl)-3-fluoro-5-[2-methoxy-4-(trifluoromethoxy)phenoxy]-2-(trifluoromethyl)pyridine-4-carboxamide] |  | 10 | 
8 | COc1cc(OC(F)(F)F)ccc1Oc1ccc(C(F)(F)F)c(OC)c1C(=O)Nc1cc(C(N)=O)ncc1F [Compound 128, 5-Fluoro-4-(2-methoxy-6-(2-methoxy-4-(trifluoromethoxy)phenoxy)-3-(trifluoromethyl)benzamido)picolinamide] |  | 18 | 
9 | NC(=O)c1cc(NC(=O)c2cc(F)c(C(F)(F)F)cc2Oc2ccc(OC(F)(F)F)cc2)ccc1F [Compound 77, N-(3-Carbamoyl-4-fluoro-phenyl)-5-fluoro-2-[4-(trifluoromethoxy)phenoxy]-4-(trifluoromethyl)benzamide] |  | 150 | 
10 | COc1cc(OC(F)(F)F)ccc1Oc1cc(C2C[C@@H]2C)ncc1C(=O)Nc1ccc(F)c(C(N)=O)c1 (mixture of isomers) [Compound 106, Racemic trans-N-(3-Carbamoyl-4-fluoro-phenyl)-4-[2-methoxy-4-(trifluoromethoxy)phenoxy]-6-(2-methylcyclopropyl)pyridine-3-carboxamide] |  | 15 | 
11 | COc1cc(OC(F)(F)F)ccc1Oc1cnc(C(F)(F)F)c(F)c1C(=O)Nc1ccnc(C(N)=O)c1 [Compound 12, N-(2-Carbamoyl-4-pyridyl)-3-fluoro-5-[2-methoxy-4-(trifluoromethoxy)phenoxy]-2-(trifluoromethyl)pyridine-4-carboxamide] |  |  | IC50 ([2]; Table 20, read-out: Nav 1.8 MedChem Optical Assay EVIPR Assay Method A HS IC50): 4 nM
12 | [2H]C([2H])([2H])Oc1cc(OC(F)(F)F)ccc1Oc1ccc(OC(F)(F)F)cc1C(=O)Nc1ccnc(C(N)=O)c1 [Compound 158, 4-[[2-[2-(Trideuteriomethoxy)-4-(trifluoromethoxy)phenoxy]-5-(trifluoromethoxy)benzoyl]amino]pyridine-2-carboxamide] |  | 150 | 
13 | NC(=O)c1cccc(NC(=O)c2c(Oc3ccc(F)cc3)ccc(C(F)(F)F)c2F)c1 [Compound 49, N-(3-carbamoylphenyl)-2-fluoro-6-(4-fluorophenoxy)-3-(trifluoromethyl)benzamide] |  | 130 | 
14 | NC(=O)c1cc(NC(=O)c2c(Oc3ccc(OC(F)(F)F)cc3)ccc(Cl)c2F)ccn1 [Compound 70, 4-[[3-Chloro-2-fluoro-6-[4-(trifluoromethoxy)phenoxy]benzoyl]amino]pyridine-2-carboxamide] |  | 53 | 
15 | NC(=O)c1cc(NC(=O)c2c(Oc3cccc4c3OCC4)ccc(C(F)(F)F)c2F)ccc1F [Compound 58, N-(3-Carbamoyl-4-fluoro-phenyl)-6-(2,3-dihydrobenzofuran-7-yloxy)-2-fluoro-3-(trifluoromethyl)benzamide] |  | 190 | 
16 | NC(=O)c1cc(NC(=O)c2c(Oc3ccc(OC(F)(F)F)cc3)ccc(C(F)F)c2F)ccc1F [Compound 74, N-(3-Carbamoyl-4-fluoro-phenyl)-3-(difluoromethyl)-2-fluoro-6-[4-(trifluoromethoxy)phenoxy]benzamide] |  | 22 | 

The next lines start with results.

Row | IC50 [1] [nM] | IC50 [2, 3] [nM] | Compound | other results
17 | 57 |  | COc1ccc(Oc2cc(C(F)(F)F)ccc2C(=O)Nc2cccc(C(N)=O)c2)c(OC)c1 [Compound 301, N-(3-carbamoylphenyl)-2-[2,4-(dimethoxy)phenoxy]-4-(trifluoromethyl)benzamide] | 
18 | 36 |  | NC(=O)c1cccc(NC(=O)c2cc(C(F)(F)F)ccc2Oc2ccc(F)cc2Cl)c1 [Compound 289, N-(3-carbamoylphenyl)-2-(2-chloro-4-fluorophenoxy)-5-(trifluoromethyl)benzamide] | 
19 | 18 |  | Cc1cc(F)ccc1Oc1ccc(C(F)(F)F)cc1C(=O)Nc1cccc(C(N)=O)c1 [Compound 296, N-(3-carbamoylphenyl)-2-(4-fluoro-2-methylphenoxy)-5-(trifluoromethyl)benzamide] | 
20 | 98 |  | NC(=O)c1cccc(NC(=O)c2cc(C(F)(F)F)ccc2Oc2ccc(F)cc2)c1 [Compound 276, N-(3-carbamoylphenyl)-2-(4-fluorophenoxy)-5-(trifluoromethyl)benzamide] | 
21 | 1200 |  | CC(C)(C)c1ccc(C(=O)Nc2cncc(C(N)=O)c2)c(Oc2ccc(C(F)(F)F)nc2)c1 [Compound 261, 5-(4-(tert-butyl)-2-((6-(trifluoromethyl)pyridin-3-yl)oxy)benzamido)nicotinamide] | 
22 | 84 |  | COc1ccccc1Oc1ccc(C(F)(F)F)cc1C(=O)Nc1cccc(C(N)=O)c1 [Compound 287, N-(3-carbamoylphenyl)-2-(2-methoxyphenoxy)-5-(trifluoromethyl)benzamide] | 
23 | 14 |  | COc1cc(F)ccc1Oc1cc(C(F)(F)F)ccc1C(=O)Nc1cccc(C(N)=O)c1 [Compound 298, N-(3-Carbamoylphenyl)-2-[4-fluoro-2-(methoxy)phenoxy]-4-(trifluoromethyl)benzamide] | 
24 | 43 |  | Cc1cc(Cl)ccc1Oc1ccc(C(F)(F)F)cc1C(=O)Nc1cccc(C(N)=O)c1 [Compound 284, N-(3-carbamoylphenyl)-2-(4-chloro-2-methylphenoxy)-5-(trifluoromethyl)benzamide] | 
